Test [1] concerns the target T1, CloA (SeCloA) (Salmonella enterica, UniProt A0A5H6DAK1, H126A/E129A).
T1 construct: gene dgt; CloA^HEAA, octamer
Kind of test: […] Å cryo-EM structure of CloA–dGTP–dTTP. Format: binding.

Test [2] concerns the target T2, CloA (SeCloA).
T2 construct: wild-type CloA
Kind of test: activation of purified CloA dGTPase, phosphate release and LC-MS. The class given is biochemical, Salmonella enterica.

For test [3], the target named is Shewanella putrefaciens CN-32 dGTPase (Shewanella putrefaciens CN-32). Kind of test: crystal structure; SpdGTPase at 10 mg/mL in 20 mM HEPES-KOH pH 7.5, 100 mM KCl; hanging drop, 18°C; reservoir 0.2 M magnesium chloride, 0.1 M HEPES-NaOH pH 7.5, 30% PEG-400.
In test [4] the target is Salmonella enterica SA20044414 Clover protein A (CloA), wild type (Salmonella enterica SA20044414). Kind of test: cryo-EM structure; apo Salmonella CloA, 1 mg/mL, vitrified at 4°C; C4 symmetry.
Test [5] deals with T3, CloA (SeCloA).
T3 construct: full-length CloA from S. enterica SA20044414, octamer
Kind of test: […] Å cryo-EM of CloA co-expressed with CloB; LC-MS of released ligand; dGTPase inhibition (malachite green). Format: biochemical, Salmonella enterica.

The target in test [6] is T2, CloA (SeCloA). Kind of test: inhibition of purified CloA dGTPase, phosphate release (malachite green). Format: biochemical, Salmonella enterica.

As a reminder, the EC50 is the midpoint of the concentration-response curve. High values mean a need for much substance, low ones an effect from little substance. With `Cc1cn([C@H]2C[C@H](O)[C@@H](COP(=O)(O)OP(=O)(O)OP(=O)(O)O)O2)c(=O)[nH]c1=O` [dTTP], the “2.6 Å cryo-EM structure of CloA-dGTP-dTTP” value on CloA (SeCloA) [1] is on record as “In the CloA–dGTP–dTTP active state structure, dTTP is bound at the CloAAB interface in an adjacent pocket”. At CloA (SeCloA) [2], this compound yielded an EC50 of approximately 15 µM.
As usually defined, the stoichiometry N is the number of molecules, sites or subunits per partner or assembly. Turning to “Shewanella putrefaciens CN-32 dGTPase (enzyme)”, the stoichiometry N in test [3] was 6.
As for “Salmonella enterica SA20044414 Clover protein A (CloA), wild type (enzyme)”, the stoichiometry N in test [4] was 8.
In general, IC50 refers to the concentration at which inhibition is half-maximal. As to `Cc1cn([C@H]2C[C@H](OP(=O)(O)OC[C@H]3O[C@@H](n4cc(C)c(=O)[nH]c4=O)C[C@@H]3O)[C@@H](COP(=O)(O)OP(=O)(O)OP(=O)(O)O)O2)c(=O)[nH]c1=O` [p3diT, 5′-triphosphothymidyl-3′5′-thymidine], at CloA (SeCloA) [5], the half-inhibitory concentration (IC50) was approximately 7.6 µM.
At CloA (SeCloA) [6], `Cc1cn([C@H]2C[C@H](OP(=O)(O)OC[C@H]3O[C@@H](n4cc(C)c(=O)[nH]c4=O)C[C@@H]3O)[C@@H](COP(=O)(O)OP(=O)(O)O)O2)c(=O)[nH]c1=O` [p2diT] gave an IC50 of approximately 20.9 µM.

The values are drawn from article doi:10.1101/2025.07.09.663793, “Activating and inhibiting nucleotide signals coordinate bacterial anti-phage defense” (bioRxiv, 2025).
